Paper PMC8264259, “A Novel Ruthenium(II) Complex With Lapachol Induces G2/M Phase Arrest Through Aurora-B Kinase Down-Regulation and ROS-Mediated Apoptosis in Human Prostate Adenocarcinoma Cells” (Frontiers in Oncology, 2021)

What was measured:
pBR322 plasmid DNA = experiment: DNA interactions assay with pBR322 plasmid (agarose gel electrophoresis); type: biochemical; settings: 1.0 μM, 37°C, 18 h
Procedure: Plasmid pBR322 (38 µM, Sigma-Aldrich) was mixed with different concentrations (0.125–1.0 µM) of both complexes and incubated at 37°C for 18 h. Then, the loading buffer was added and the samples were analyzed by agarose gel electrophoresis for 90 min in 1% agarose gel using a Tris-acetate-EDTA (TAE) buffer (0.45 M Tris-HCl, 0.45 M acetic acid, 10 mM EDTA, pH 7.4), and ethidium bromide was employed for staining. Bands were visualized with a ChemiDoc MP imager (BioRad, USA).

DU-145 cells [1] = experiment: Annexin-V/PI staining assay (flow cytometry); type: cell-based, human; settings: for population of apoptotic cells: 24 h, control group 5.9%
Procedure: The measurement of cell death was performed by the guidelines of ([35]). Detection of apoptotic/necrotic cells was determined by flow cytometry using the Alexa Fluor® 488 Annexin V/PI (Thermo Fischer Scientific), and the analyses were performed according to the manufacturer’s instructions. […] DMSO (0.1% v/v) was used as the vehicle control. Following 24 h of incubation, the cells were collected with Accutase® (Gibco-Invitrogen®), washed with PBS and resuspended in 200 μl of cold annexin-binding buffer. Next, 10 μl of Alexa Fluor® was added to Annexin V (50 μl/ml) staining buffer, and the mixture was incubated in the dark at 4°C for 15 min. Previously, the analyses, 100 μl of PI (2 μg/ml) was added, and then, the fluorescence was measured by flow cytometry in a FACSCanto flow cytometer (BD Biosciences, USA) using the Diva software. Ten thousand events were evaluated per experiment, and cellular debris was omitted from the analysis.

DU-145 cells [2] = experiment: Cellular ROS/Superoxide detection; type: cell-based, human
Procedure: Total intracellular ROS generation was measured using 2′,7′-dichlorodihydrofluorescein diacetate (H2DCFDA, Sigma-Aldrich), as reported by ([36]). Briefly, DU-145 cells were seeded (1.5 × 10^4 cells/well) into black 96-well plates and maintained to attach at 37°C in 5% CO2. […] After that, cells were labeled with H2DCFDA solution at 5 μM in N,N-dimethylformamide (Sigma-Aldrich). After that, fluorescence intensity was measured in a Synergy H1 Fluorescence Spectrophotometer (BioTek®), at the excitation and emission wavelengths of 495 and 527 nm, respectively. Thereafter, ROS/Superoxide levels were measured using Cellular ROS/Superoxide Detection Assay Kit (Abcam®). Cells were seeded (1.5 × 10^4 cells/well) into black 96-well plates and maintained to attach at 37°C in 5% CO2. After 24 h, cells were treated with complex (2) (0.25, 0.50, 1.0, and 1.5 μM) for 24 h. […] Fluorescence was measured in quadruplicates using a fluorescent microplate reader Synergy H1 (BioTek®) with standard fluorescein (Ex = 488 nm, Em = 520 nm) and rhodamine (Ex = 550 nm, Em = 610 nm) filter sets for ROS and superoxide determination, respectively. […] Cells were labeled as described above, and the ROS levels were measured. […] After 24 h of treatment, the cell viability was determined by Alamar blue® assay as described above.

SMILES: CC(C)=CCC1=C([O-])C(=O)c2ccccc2C1=O.F[P-](F)(F)(F)(F)F.[Ru+2].c1ccc(P(CP(c2ccccc2)c2ccccc2)c2ccccc2)cc1.c1cnc2c(c1)ccc1cccnc12 [complex (2), [Ru(Lap)(dppm)(phen)]PF6]
- nuclease activity on pBR322 (supercoiled to linear) (pBR322 plasmid DNA): single-strand DNA cleavage
- population of apoptotic cells (DU-145 cells [1]; DU-145, 0.25 μM): 11.8%
- population of apoptotic cells (DU-145 cells [1]; DU-145, 0.5 μM): 22.7%
- population of apoptotic cells (DU-145 cells [1]; DU-145, 1.0 μM): 41.4%
- population of apoptotic cells (DU-145 cells [1]; DU-145, 1.5 μM): 70.2%
- fold lower concentration required for the same effect of cisplatin (DU-145 cells [1]; apoptotic DU-145 cells, vs cisplatin 25 μM): 100 fold
- total ROS levels (DU-145 cells [2]; DU-145, 24 h exposure): significantly higher
- intracellular ROS with ROS scavenger NAC (DU-145 cells [2]; DU-145, cotreatment with 5 mM NAC, 24 h): inhibited the formation of intracellular ROS
